Test results: patent publication US8022072B2, “Azolylmethylidenehydrazine derivative and use thereof” (Kaken Pharmaceutical Co., Ltd., priority 2007, dated 2011)
Values after ≈ are worked out from the molar mass of the structure shown.

Assays:
[1] = test system: OVA-induced dermatitis; assay: Ovalbumin (OVA)-induced dermatitis model, ear edema; format: in vivo, male ICR mouse; design: key: ratio of compound's ear edema inhibition rate to FK506's (FK506 = 1.0); conditions: test compound 1 w/v % (FK506 0.1 w/v %), 20 μL applied to auricle, 24 hours after induction
Description: (§1) The test compound was adjusted to 1 w/v % when in use with a solvent (acetone:olive oil=1:1, v/v)) and put to use. FK506 (control substance) was adjusted to 0.1 w/v % and used.
Male ICR mouse was sensitized by the administration of 0.2 mL of OVA-hydroxide aluminum gel suspension to the abdominal cavity. After 14 days from the sensitization, the thickness of the right auricle was measured with a micrometer (pre-value). After the measurement, 20 μL of 0.5 μg/mL OVA challenge liquid (solvent was physiological saline) was subcutaneously administered to the inside of the auricle to induce ear edema. About 5 minutes after the administration of the challenge liquid, 20 μL of the test compound was applied to the outside of the auricle. After 24 hours from the induction of ear edema, the thickness of the right auricle was measured by a method similar to the pre-value (post-value). The difference between the post-value and the pre-value of ear edema by each test compound was determined, based on which the inhibition rate was calculated. The activity of each test compound was calculated with the ear edema inhibition rate of FK506 as 1.0 (ear edema inhibition rate of each test compound/ear edema inhibition rate of FK506).

[2] = test system: TNCB-induced dermatitis; assay: 2,4,6-Trinitrochlorobenzene (TNCB)-induced dermatitis model, ear edema; format: in vivo, male BALB/c mouse; conditions: test compound 1 w/v % (FK506 0.1 w/v %), 20 μL applied to auricle, 24 hours after induction
Description: as §1
The fur on the abdomen of male BALB/c mouse was shaved with a hair clipper, and 100 μL of 7 w/v % TNCB sensitizing liquid (solvent was acetone:olive oil=4:1, v/v) was applied. Six days after the sensitization, the thickness of the right auricle was measured with a micrometer (pre-value). After the measurement, 10 μL of 1 w/v % TNCB challenge liquid (solvent was acetone:olive oil=1:9, v/v) was applied to the inside of the right auricle to induce ear edema. About 5 minutes after the application of the challenge liquid, 20 μL of the test compound was applied to the outside of the auricle.
After 24 hours from the induction of ear edema, the thickness of the right auricle was measured by a method similar to the pre-value (post-value). The difference between the post-value and the pre-value of ear edema by each test compound was determined, based on which the inhibition rate was calculated. The activity of each test compound was calculated with the ear edema inhibition rate of FK506 as 1.0 (ear edema inhibition rate of each test compound/ear edema inhibition rate of FK506).

[3] = test system: Trichophyton mentagrophytes SM-110; assay: Antifungal activity evaluation test, MIC, Trichophyton mentagrophytes SM-110; format: cell-based; conditions: SM110, 168 h, Sabouraud Dextrose Broth, 30° C., 7 days, visual, read-out: MIC T. men. SM-110
Description: (§2) The minimum inhibitory concentration (MIC) for Trichophyton mentagrophytes, Trichophyton rubrum, and Malassezia furfur was measured according to the following procedure. • Test compound solution: A test compound was dissolved in dimethyl sulfoxide (DMSO) at a concentration of 5 mg/mL as a stock solution. […] Then, as a test medium, a fungal solution of Trichophyton species was 100-fold diluted with Sabouraud Dextrose Broth (Difco), and a fungal solution of Malassezia furfur IFO-0656 was 100-fold diluted with MU medium to give each inoculum (2×10^4 cells/mL). • Measurement of MIC of Trichophyton fungi: Sabouraud Dextrose Broth (Difco) was dispensed by 100 μL to a given well of a 96 well flat microplate. Then, a test compound solution (2 μL) was added, and the mixture was thoroughly mixed with a plate mixer. A fungal solution (100 μL) was inoculated and cultured at 30° C. for 7 days. The presence or absence of the cell growth was visually observed, and the minimum medicament concentration at which the cell growth was prevented was taken as MIC (μg/mL). • Measurement of MIC of Malassezia furfur: Since the urease activity of this fungus and the fungus growth rate are co-related, MIC was evaluated by the following method using urease activity as an index. MU medium was dispensed by 100 μL to a given well of a 96 well flat microplate. Then, a test compound solution (2 μL) was added, and the mixture was thoroughly mixed with a plate mixer. A fungal solution (100 μL) was inoculated and cultured at 30° C. The culture was stopped on day 4 or 5 of culture when the color tone of the MU medium changes from yellow to red in visual observation of the fungus growth in a well free of addition of a test substance. Then the plate was stirred until the fungus became uniform, and the urease activity was measured based on the measurement of absorbance at 550 nm using a plate reader.

[4] = test system: Trichophyton rubrum KD-101; assay: Antifungal activity evaluation test, MIC, Trichophyton rubrum KD-101; format: cell-based; conditions: KD101, 168 h, Sabouraud Dextrose Broth, 30° C., 7 days, visual, read-out: MIC T. rub. KD-101
Description: as §2

[5] = test system: Trichophyton mentagrophytes KD-04; assay: Influence of keratin addition on anti-Trichophyton activity; format: cell-based; conditions: Trichophyton mentagrophytes, KD04, 168 h, 30° C., 7 days
Description: The MIC increase rate by the addition of keratin to a medium was measured by the following procedure. • Test compound solution: A test compound was dissolved in dimethyl sulfoxide (DMSO) at a concentration of 5 mg/mL as a stock solution. Diluting this solution with DMSO, a 2-fold dilution series was prepared. • Test strain: Trichophyton mentagrophytes KD-04 was used. Preparation of Fungal Inoculum: the Above-Mentioned Strain was suspended in 0.05% Tween 80-containing physiological saline, and adjusted to a fungus concentration of 2×10^6 cells/mL using a counting chamber. […] The physiological saline was removed, and the mixture was further washed once with physiological saline (3 mL). The physiological saline was removed, and a test compound solution (10 μL) and Sabouraud Dextrose Broth (Difco) (500 μL) were added to keratin, and the mixture was sufficiently stirred. Then, inoculum (500 μL) of T. mentagrophytes KD-04 was added, and the mixture was cultured at 30° C. for 7 days. As a comparison control, an experiment similar to the above was performed under conditions free of keratin addition.

[6] = test system: Malassezia furfur IFO-0656; assay: Antifungal activity evaluation test, MIC by urease activity, Malassezia furfur IFO-0656; format: cell-based; conditions: IFO0656, 96 h, MU medium, 30° C., day 4 or 5, urease activity of 20% or below, read-out: MIC M. fur. IFO-0656
Description: as §2

[7] = test system: Trichophyton rubrum KD-107; assay: Antifungal activity evaluation test, MIC, Trichophyton rubrum KD-107; format: cell-based; conditions: KD107, 168 h, Sabouraud Dextrose Broth, 30° C., 7 days, visual, read-out: MIC T. rub. KD-107
Description: as §2

[8] = test system: Trichophyton mentagrophytes KD-04; assay: Antifungal activity evaluation test, MIC, Trichophyton mentagrophytes KD-04; format: cell-based; conditions: KD04, 168 h, Sabouraud Dextrose Broth, 30° C., 7 days, visual, read-out: MIC T. men. KD-04
Description: as §2

[9] = T. mentagrophytes KD-04, free of keratin addition, read-out: MIC SDB alone
[10] = T. mentagrophytes KD-04, keratin 50 mg added, read-out: MIC SDB + keratin

SMILES	OVA-induced dermatitis, with ear edema inhibition rate of FK506 as 1.0 [1]	TNCB-induced dermatitis, with ear edema inhibition rate of FK506 as 1.0 [2]	also measured
CCCCCCc1ccccc1C(=NN(C)C)n1ccnc1 [Compound No. 5, N′-[1-(2-hexylphenyl)-1-imidazol-1-ylmethylidene]-N,N-dimethylhydrazine]	1.2	0.6	–
CCCCCOc1ccccc1C(=NN(C)C)n1ccnc1 [Compound No. 24, N′-[1-imidazol-1-yl-1-(2-pentyloxyphenyl)methylidene]-N,N-dimethylhydrazine]	0.9	0.5	–
CN(C)N=C(c1ccccc1OCc1ccc(F)cc1)n1ccnc1 [Compound No. 35, N′-[1-[2-(4-fluorobenzyloxy)phenyl]-1-imidazol-1-ylmethylidene]-N,N-dimethylhydrazine]	0.9	0.6	–
CN(C)N=C(c1ccccc1OCc1ccc(Cl)cc1)n1ccnc1 [Compound No. 38, N′-[1-[2-(4-chlorobenzyloxy)phenyl]-1-imidazol-1-ylmethylidene]-N,N-dimethylhydrazine]	1.1	0.7	–
CN(C)N=C(c1ccccc1OCc1cccc(Cl)c1)n1ccnc1 [Compound No. 40, N′-[1-[2-(3-chlorobenzyloxy)phenyl]-1-imidazol-1-ylmethylidene]-N,N-dimethylhydrazine]	1.0	0.7	–
CCc1ccc(COc2ccccc2C(=NN(C)C)n2ccnc2)cc1 [Compound No. 48, N′-[1-[2-(4-ethylbenzyloxy)phenyl]-1-imidazol-1-ylmethylidene]-N,N-dimethylhydrazine]	1.0	0.5	–
CN(C)N=C(c1ccccc1OCCc1ccccc1)n1ccnc1 [Compound No. 56, N′-[1-imidazol-1-yl-1-(2-phenethoxyphenyl)methylidene]-N,N-dimethylhydrazine]	1.2	0.7	–
CN(C)N=C(c1ccccc1OCCc1ccc(F)cc1)n1ccnc1 [Compound No. 57, N′-[1-[2-[2-(4-fluorophenyl)ethoxy]phenyl]-1-imidazol-1-ylmethylidene]-N,N-dimethylhydrazine]	1.8	0.8	–
COc1ccc(CCOc2ccccc2C(=NN(C)C)n2ccnc2)cc1 [Compound No. 58, N′-[1-imidazol-1-yl-1-[2-[2-(4-methoxyphenyl)ethoxy]phenyl]methylidene]-N,N-dimethylhydrazine]	1.0	0.9	–
CN(C)N=C(c1ccccc1OCC1COc2ccccc2O1)n1ccnc1 (stereo not shown) [Compound No. 73, N′-[1-[2-(2,3-dihydrobenzo[1,4]dioxin-2-ylmethoxy)phenyl]-1-imidazol-1-ylmethylidene]-N,N-dimethylhydrazine]	1.1	0.7	–
CCCSc1ccccc1C(=NN(C)C)n1ccnc1 [Compound No. 81, N′-[1-imidazol-1-yl-1-(2-propylthiophenyl)methylidene]-N,N-dimethylhydrazine]	–	–	MIC [3]: 0.39 µg/mL (≈ 1.35 µM); MIC [4]: 0.39 µg/mL (≈ 1.35 µM); MIC [5, 9]: 0.39 µg/mL (≈ 1.35 µM); MIC [5, 10]: 0.39 µg/mL; MIC [6]: 3.13 µg/mL (≈ 10.9 µM); MIC [7]: 0.2 µg/mL (≈ 0.693 µM); MIC [8]: 0.2 µg/mL (≈ 0.693 µM)
CN(C)N=C(c1ccccc1SCCc1ccccc1)n1ccnc1 [Compound No. 84, N′-[1-imidazol-1-yl-1-(2-phenethylthiophenyl)methylidene]-N,N-dimethylhydrazine]	1.4	0.9	–
CN(C)N=C(c1cccn1Cc1ccccc1)n1ccnc1 [Compound No. 105, N′-[1-(1-benzylpyrrol-2-yl)-1-imidazol-1-ylmethylidene]-N,N-dimethylhydrazine]	–	–	MIC [3]: 0.39 µg/mL (≈ 1.33 µM); MIC [4]: 0.2 µg/mL (≈ 0.682 µM); MIC [5, 9]: 0.39 µg/mL (≈ 1.33 µM); MIC [5, 10]: 0.78 µg/mL; MIC [6]: 25 µg/mL (≈ 85.2 µM); MIC [7]: 0.2 µg/mL (≈ 0.682 µM); MIC [8]: 0.2 µg/mL (≈ 0.682 µM)
CN(C)N=C(c1cccn1CCCOc1ccccc1)n1ccnc1 [Compound No. 108, N′-[1-imidazol-1-yl-1-[1-(3-phenoxypropyl)pyrrol-2-yl]methylidene]-N,N-dimethylhydrazine]	1.4	0.9	–
CCN(C)N=C(c1ccccc1OCc1ccc(F)cc1)n1ccnc1 [Compound No. 113, N-ethyl-N′-[1-[2-(4-fluorobenzyloxy)phenyl]-1-imidazol-1-ylmethylidene]-N-methylhydrazine]	1.7	0.6	–
CCN(C)N=C(c1ccccc1OCCCOc1ccccc1)n1ccnc1 [Compound No. 115, N-ethyl-N′-[1-imidazol-1-yl-1-[2-(3-phenoxypropoxy)phenyl]methylidene]-N-methylhydrazine]	1.4	0.7	–
CCC(C)n1ncn(-c2ccc(N3CCN(c4ccc(OCC5COC(Cn6cncn6)(c6ccc(Cl)cc6Cl)O5)cc4)CC3)cc2)c1=O (stereo not shown) [ITCZ, itraconazole, reference compound]	–	–	MIC [3]: 0.2 µg/mL (≈ 0.283 µM); MIC [4]: 0.1 µg/mL (≈ 0.142 µM); MIC [5, 9]: 0.05 µg/mL (≈ 0.0709 µM); MIC [5, 10]: 25 µg/mL; MIC [6]: 0.05 µg/mL (≈ 0.0709 µM); MIC [7]: 0.05 µg/mL (≈ 0.0709 µM); MIC [8]: 0.1 µg/mL (≈ 0.142 µM)
